Measured values published in patent publication US9920053B2, “N-(hetero)aryl-substituted heteroyclic derivatives useful for the treatment of diseases or conditions related to the central nervous system” (CHRONOS THERAPEUTICS LIMITED, priority 2014, dated 2018).

Tests used:
[1] = target: human dopamine transporter (DAT) (Homo sapiens (Human), UniProt Q01959); assay: Scintillation Proximity Assay (SPA) for human DAT binding ([3H]WIN-35,428); details: recombinant human DAT, CHO
From the text: (§1) Affinity is expressed in terms of inhibition constant (Ki) of the compounds of the invention for DAT, NET and SERT, and it is typically calculated from the IC50 values obtained in competition experiments using Cheng and Prusoff equation (Cheng and Prusoff, Biochem. Pharmacol. 22:3099, 1973). In the context of the present invention pKi values (corresponding to the antilogarithm of Ki) are used instead of Ki; pKi are only estimated to be accurate to about 0.3 log unit.
(§2) Chinese Hamster Ovary (CHO) cells stably expressing either human DAT (hDAT-CHO) or human NET (hNET-CHO) or human SERT (hSERT-CHO) are used for the membrane preparations for radioligand binding assays using Scintillation proximity Assay (SPA) technique. Each cell line is cultured independently in F-12K Nutrient Mixture containing 10% of Fetal Bovine Serum (FBS) supplemented with 450 μg/ml G-418. When cells are at 70-80% of confluence 3 mM Na Butyrate was added to the cell culture medium. After 24 h of incubation, the culture medium was removed and the cells detached with Versene (DAT) or by scraping (NET and SERT). Cell suspension is centrifuged at 41,000 g for 10 minutes at 4° C. The resultant pellets are re-suspended in 15 volumes of Ice-cold buffer (20 mM HEPES, 145 mM NaCl, 5 mM KCl, pH7.3), homogenized using an Ultra Turrax homogeniser and centrifuged as before. The resultant membrane pellets are re-suspended in up to 15 volume of ice-cold buffer, incubated for 20 minutes at 37° C and centrifuged as before at 41,000 g. The final membrane pellets are re-suspended into 5-10 volumes of ice-cold buffer, dispensed into 0.5 ml aliquots and stored at −80° C. until use. Protein concentration for each preparation is determined using Bio-Rad Protein Assay Kit.
(§3) The affinity of the compounds of the invention to the human DAT or NET or SERT transporters is assessed by using the [^3H]WIN-35,428 or [^3H]nisoxetine or [^3H]citalopram binding assays in recombinant human DAT, NET and SERT membranes with the SPA technology. The final assay volume is 50 μL in 384 well plates.
(§4) Briefly, 0.5 μL of test compound in neat DMSO or 0.5 μL of DMSO for total binding (TB) or 0.5 μL of indatraline 1 mM (10 μM final concentration) for non specific binding (NSB) are added to the assay plate. 50 μL of the SPA mixture is added to each well, containing: 30 μg/mL or 10 μg/mL or 25 μg/mL DAT, NET, SERT membranes, respectively; 5 nM [^3H]WIN-35,428 or 5 nM [^3H]nisoxetine or 1 nM [^3H]citalopram, for DAT, NET, SERT assay, respectively; 2.5 mg/mL or 1 mg/mL or 4 mg/mL WGA-PVT SPA beads (PerkinElmer RPNQ0001, for DAT, NET, SERT assay, respectively. All components are added to Assay Buffer (20 mM HEPES pH 7.4, 145 mM NaCl, 5 mM KCl, 0.01% Pluronic F-127). 0.02% BSA was used for DAT binding only. Plates are sealed with Topseal A and centrifuged 1 min, 800 rpm. Plates are loaded into a 1450 Microbeta TriLux (Perkin-Elmer) plate reader and the radioactivity counted after at least 4 hrs or overnight incubation at room temperature. Curve fitting and IC50 estimations are performed using a four parameter model in XLfit (IDBS, Guilford, UK) for Microdoft Excel (Microsoft, Redmond, Wash.).
The potency of the compounds of the invention in blocking the DAT function is measured using an uptake assay in a recombinant CHO cell line expressing human DAT (hDAT-CHO). Potency is measured in terms of pIC50 by testing the compounds of invention for the inhibition of [^3H]-dopamine uptake in DAT-CHO cells using a SPA technology in 384 well format.
Briefly, on the days of the experiment hDAT-CHO cells are detached using Versene and added (75,000 cells/mL) to the SPA Mixture, which contains the following components in Assay Buffer (20 mM HEPES, 145 mM NaCl, 5 mM KCl, 2 mM CaCl2, 1 mM MgCl2 and 1 g/L glucose, pH 7.3): 0.02% w/v of Pluronic F127, 2 mg/mL SPA Imaging beads (RPNQ0260, PerkinElmer), 10 μM pargyline and 80 nM of [^3H]-dopamine. […]

[2] = target: human norepinephrine transporter (NET) (Homo sapiens (Human), UniProt P23975); assay: Scintillation Proximity Assay (SPA) for human NET binding ([3H]nisoxetine); details: recombinant human NET, CHO membranes
From the text: as §1, §2, §3, §4

[3] = target: human serotonin transporter (SERT) (Homo sapiens (Human), UniProt P31645); assay: Scintillation Proximity Assay (SPA) for human SERT binding ([3H]citalopram); details: recombinant human SERT, CHO membranes
From the text: as §1, §2, §3, §4

[4] = target: human ERG potassium channel (hERG) (Homo sapiens (Human), UniProt Q12809); assay: hERG channel tail current recording using Rapid ICE automated patch-clamp; assay type: cell-based; details: HEK293 cells stably transfected with hERG
Description: The potency of the compounds of the invention in inhibiting human ERG potassium channel (hERG) tail current is assessed in a recombinant HEK293 cell line stably transfected with hERG cDNA using Rapid ICE™ (Rapid Ion Channel Electrophysiology) assay. Rapid ICE™ is an automated patch-clamp assay utilizing the PatchXpress 7000A system (Molecular Devices Corporation) or the QPatch HTX system (Sophion Bioscience A/S).
Briefly cells are cultivated for 24 to 72 hours before recordings in minimum essential medium supplemented with 10% FBS, 1% non-essential amino acids, 1% sodium pyruvate, 2 mM L-glutamine. The day of the experiment cells are detached with TrypLE and prepared to be loaded on the instrument. For PatchXpress cells are finally resuspended in 150 μl of Extracellular Buffer whereas for QPatch cells are resuspended in 7 ml Serum-Free Media containing 25 mM Hepes and Soybean trypsin inhibitor and immediately placed in the cell storage tank of the machine. The composition of the Extracellular Buffer is (mM): NaCl 137; KCl 4; CaCl2 1.8; MgCl2 1.0; D-glucose 10; N 2 hydroxyethylpiperazine-N′-2-ethanesulfonic acid (HEPES) 10; pH 7.4 with 1 M NaOH. The composition of the pipette solution is (mM): KCl 130; MgCl2 1.0; Ethylene glycol-bis(β-aminoethyl ether)-N,N,N′,N′-tetraacetic acid (EGTA) 5; MgATP 5; HEPES 10; pH 7.2 with 1 M KOH. The voltage protocol includes the following steps: step from −80 mV to −50 mV for 200 ms, +20 mV for 4.8 s, step to −50 mV for 5 s then step to the holding potential of −80 mV. Compounds of the invention are dissolved in DMSO and diluted in Extracellular Buffer to achieve final test concentrations (0.1, 1 and 10 μM) in 0.1% DMSO. The voltage protocol is run and recorded continuously during the experiment. The vehicle, corresponding to 0.1% DMSO in Extracellular Buffer, is then applied for 3 min followed by the test substance in triplicate. The standard combined exposure time is 5 min. The average of tail current amplitude values recorded from 4 sequential voltage pulses is used to calculate for each cell the effect of the test substance by calculating the residual current (% control) compared with vehicle pre-treatment. Data are reported as % inhibition for each concentration tested and IC50 values are estimated using DataXpress or QPatch software. At least two cells are tested, more if results diverge.

human serotonin transporter (SERT), sequence (P31645 whole entry): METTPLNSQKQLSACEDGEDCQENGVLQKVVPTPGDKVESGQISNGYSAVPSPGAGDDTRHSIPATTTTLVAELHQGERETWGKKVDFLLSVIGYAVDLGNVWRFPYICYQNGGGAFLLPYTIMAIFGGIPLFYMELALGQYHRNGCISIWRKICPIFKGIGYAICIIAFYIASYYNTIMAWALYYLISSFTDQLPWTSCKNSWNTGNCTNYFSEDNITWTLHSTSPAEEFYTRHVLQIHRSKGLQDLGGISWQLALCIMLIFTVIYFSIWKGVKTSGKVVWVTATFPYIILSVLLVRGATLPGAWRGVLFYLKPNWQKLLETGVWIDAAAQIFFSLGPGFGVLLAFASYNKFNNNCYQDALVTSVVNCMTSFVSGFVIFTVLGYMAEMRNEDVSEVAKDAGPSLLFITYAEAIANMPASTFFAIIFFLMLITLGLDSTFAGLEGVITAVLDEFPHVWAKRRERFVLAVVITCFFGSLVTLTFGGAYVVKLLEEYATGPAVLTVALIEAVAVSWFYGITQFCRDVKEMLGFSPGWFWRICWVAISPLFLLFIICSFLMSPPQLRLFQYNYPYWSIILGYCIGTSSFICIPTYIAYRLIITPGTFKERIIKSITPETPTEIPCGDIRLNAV
human dopamine transporter (DAT), sequence (Q01959 whole entry): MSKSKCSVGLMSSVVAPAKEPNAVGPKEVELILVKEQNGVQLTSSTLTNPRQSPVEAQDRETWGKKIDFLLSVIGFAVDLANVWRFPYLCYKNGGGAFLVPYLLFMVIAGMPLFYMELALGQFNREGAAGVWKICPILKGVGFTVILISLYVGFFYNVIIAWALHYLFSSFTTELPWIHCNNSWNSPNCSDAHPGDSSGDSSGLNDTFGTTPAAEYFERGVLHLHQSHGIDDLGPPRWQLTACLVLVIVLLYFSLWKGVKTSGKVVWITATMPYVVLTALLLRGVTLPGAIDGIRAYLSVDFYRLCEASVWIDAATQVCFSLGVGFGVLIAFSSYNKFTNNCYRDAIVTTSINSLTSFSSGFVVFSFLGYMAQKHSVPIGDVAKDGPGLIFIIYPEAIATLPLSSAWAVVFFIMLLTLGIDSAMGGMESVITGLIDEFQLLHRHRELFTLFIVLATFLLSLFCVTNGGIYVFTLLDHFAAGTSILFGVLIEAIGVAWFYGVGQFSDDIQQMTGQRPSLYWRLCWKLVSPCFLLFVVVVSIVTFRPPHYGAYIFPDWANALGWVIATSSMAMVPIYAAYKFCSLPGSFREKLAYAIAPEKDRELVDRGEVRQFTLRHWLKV
human norepinephrine transporter (NET), sequence (P23975 whole entry): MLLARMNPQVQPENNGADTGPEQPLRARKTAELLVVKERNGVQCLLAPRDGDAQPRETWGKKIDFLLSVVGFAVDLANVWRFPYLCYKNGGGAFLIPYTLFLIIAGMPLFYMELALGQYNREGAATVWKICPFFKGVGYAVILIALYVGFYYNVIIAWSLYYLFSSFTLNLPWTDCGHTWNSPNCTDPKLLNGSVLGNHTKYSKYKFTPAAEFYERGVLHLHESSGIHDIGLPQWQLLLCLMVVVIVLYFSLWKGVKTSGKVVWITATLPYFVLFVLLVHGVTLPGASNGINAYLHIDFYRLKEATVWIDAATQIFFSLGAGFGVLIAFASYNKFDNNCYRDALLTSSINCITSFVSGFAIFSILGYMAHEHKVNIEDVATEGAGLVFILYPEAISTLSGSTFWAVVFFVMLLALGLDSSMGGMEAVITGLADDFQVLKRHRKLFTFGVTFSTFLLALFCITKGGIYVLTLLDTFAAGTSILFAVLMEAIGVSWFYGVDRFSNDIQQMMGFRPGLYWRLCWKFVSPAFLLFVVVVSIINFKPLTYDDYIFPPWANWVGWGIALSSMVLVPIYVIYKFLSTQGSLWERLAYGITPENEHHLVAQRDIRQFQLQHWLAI
human ERG potassium channel (hERG), sequence (Q12809 whole entry): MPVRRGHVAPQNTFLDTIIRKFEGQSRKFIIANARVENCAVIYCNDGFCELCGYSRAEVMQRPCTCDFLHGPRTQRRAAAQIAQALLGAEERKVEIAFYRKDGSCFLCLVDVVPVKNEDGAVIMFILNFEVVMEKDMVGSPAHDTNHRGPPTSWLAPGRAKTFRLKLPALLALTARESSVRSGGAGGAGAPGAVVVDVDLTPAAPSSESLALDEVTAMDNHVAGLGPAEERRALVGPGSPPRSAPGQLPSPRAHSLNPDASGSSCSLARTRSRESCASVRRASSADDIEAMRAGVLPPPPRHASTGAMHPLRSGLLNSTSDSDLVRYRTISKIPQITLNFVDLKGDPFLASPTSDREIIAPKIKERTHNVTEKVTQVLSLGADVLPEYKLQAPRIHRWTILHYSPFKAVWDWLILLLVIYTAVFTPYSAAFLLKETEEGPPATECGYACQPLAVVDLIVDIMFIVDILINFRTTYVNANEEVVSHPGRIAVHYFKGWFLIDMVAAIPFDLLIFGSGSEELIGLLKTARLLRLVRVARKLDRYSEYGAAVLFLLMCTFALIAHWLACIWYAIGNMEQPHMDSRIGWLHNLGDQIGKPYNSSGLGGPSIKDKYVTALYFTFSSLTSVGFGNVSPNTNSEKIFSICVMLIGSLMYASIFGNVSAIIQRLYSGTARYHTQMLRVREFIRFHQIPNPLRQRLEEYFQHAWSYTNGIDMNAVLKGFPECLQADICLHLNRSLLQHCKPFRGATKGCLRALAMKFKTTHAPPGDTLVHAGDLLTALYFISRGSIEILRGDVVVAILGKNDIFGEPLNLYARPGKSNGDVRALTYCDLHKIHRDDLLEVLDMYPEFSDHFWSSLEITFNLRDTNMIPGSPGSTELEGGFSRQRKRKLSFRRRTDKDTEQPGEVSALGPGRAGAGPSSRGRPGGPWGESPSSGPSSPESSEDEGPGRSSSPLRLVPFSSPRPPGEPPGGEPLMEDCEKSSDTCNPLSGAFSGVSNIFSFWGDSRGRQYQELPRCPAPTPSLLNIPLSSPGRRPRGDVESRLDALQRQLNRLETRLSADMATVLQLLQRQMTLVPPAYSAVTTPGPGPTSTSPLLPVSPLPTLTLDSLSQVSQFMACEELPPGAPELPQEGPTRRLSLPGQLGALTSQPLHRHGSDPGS

| Compound | pIC50 DAT [1] | pIC50 NET [2] | IC50 [3] | pIC50 hERG [4] | pIC50 SERT [3] |
| --- | --- | --- | --- | --- | --- |
| CN(C)CC1(O)CCN(c2nc(Oc3cccc(F)c3)cc(C(F)(F)F)n2)CC1 [Example 1, 4-[(dimethylamino)methyl]-1-[4-(3-fluorophenoxy)-6(trifluoromethyl)pyrimidin-2-yl]piperidin-4-ol] | 8.46 | 7.00 | 13.5 µM | 6.6 | – |
| CC(C)(C)NCC1(O)CCN(c2nc(Oc3cccc(F)c3)cc(C(F)(F)F)n2)CC1 [Example 9, 4-[(tert-butylamino)methyl]-1-[4-(3-fluorophenoxy)-6-(trifluoromethyl)pyrimidin-2-yl]piperidin-4-ol] | 7.91 | 6.02 | 11.2 µM | – | – |
| O=C1CCCN1CC1(O)CCN(c2nc(Oc3cccc(F)c3)cc(C(F)(F)F)n2)CC1 [Example 10, 1-({1-[4-(3-fluorophenoxy)-6-(trifluoromethyl)pyrimidin-2-yl]-4-hydroxypiperidin-4-yl}methyl)pyrrolidin-2-one] | 7.18 | 5.33 | > 100 µM | – | – |
| Cl.NCC1(O)CCN(c2nc(Oc3cccc(F)c3)cc(C(F)(F)F)n2)CC1 [Example 12, 4-(aminomethyl)-1-[4-(3-fluorophenoxy)-6-(trifluoromethyl)pyrimidin-2-yl]piperidin-4-ol hydrochloride] | 8.56 | 6.84 | 8.71 µM | – | – |
| NCC1(O)CCN(c2cc(F)cc(Oc3cccc(F)c3)c2)CC1 [Example 14, 4-(aminomethyl)-1-[3-fluoro-5-(3-fluorophenoxy)phenyl]piperidin-4-ol] | 8.82 | 6.93 | 0.603 µM | – | – |
| NCC1(O)CCN(c2cc(F)cc(Oc3cccc(F)c3)c2F)CC1 [Example 15, 4-(aminomethyl)-1-[2,5-difluoro-3-(3-fluorophenoxy)phenyl]piperidin-4-ol] | 9.04 | 7.24 | 0.661 µM | – | – |
| NCC1(O)CCN(c2cccc(Oc3ccccc3)c2F)CC1 [Example 16, 4-(aminomethyl)-1-(2-fluoro-3-phenoxyphenyl)piperidin-4-ol] | 7.81 | 6.01 | 1.45 µM | – | – |
| NCC1(O)CCN(c2cccc(Oc3cccc(F)c3)c2F)CC1 [Example 17, 4-(aminomethyl)-1-[2-fluoro-3-(3-fluorophenoxy)phenyl]piperidin-4-ol] | 8.17 | 6.49 | 2.09 µM | – | – |
| NC1(CO)CCN(c2nc(Oc3cccc(F)c3)cc(C(F)(F)F)n2)CC1 [Example 20, {4-amino-1-[4-(3-fluorophenoxy)-6-(trifluoromethyl)pyrimidin-2-yl]piperidin-4-yl}methanol] | 8.39 | 6.50 | 5.13 µM | – | – |
| O=C(CC1CC1)NCC1(O)CCN(c2nc(Oc3cccc(F)c3)cc(C(F)(F)F)n2)CC1 [Example 22, 2-cyclopropyl-N-({1-[4-(3-fluorophenoxy)-6-(trifluoromethyl)pyrimidin-2-yl]-4-hydroxypiperidin-4-yl}methyl)acetamide] | 7.58 | 5.76 | > 100 µM | – | – |
| CC(C)OCC(=O)NCC1(O)CCN(c2nc(Oc3cccc(F)c3)cc(C(F)(F)F)n2)CC1 [Example 23, N-({1-[4-(3-fluorophenoxy)-6-(trifluoromethyl)pyrimidin-2-yl]-4-hydroxypiperidin-4-yl}methyl)-2-(propan-2-yloxy)acetamide] | 7.75 | 5.55 | > 100 µM | – | – |
| CC(=O)NCC1(O)CCN(c2nc(Oc3cccc(F)c3)cc(C(F)(F)F)n2)CC1 [Example 24, N-({1-[4-(3-fluorophenoxy)-6-(trifluoromethyl)pyrimidin-2-yl]-4-hydroxypiperidin-4-yl}methyl)acetamide] | 7.42 | 5.04 | > 100 µM | – | – |
| OC1(CNC2CC2)CCN(c2nc(Oc3cccc(F)c3)cc(C(F)(F)F)n2)C1 (stereo not shown) [Example 30, 3-[(cyclopropylamino)methyl]-1-[4-(3-fluorophenoxy)-6-(trifluoromethyl)pyrimidin-2-yl]pyrrolidin-3-ol] | 8.72 | 6.78 | 34.7 µM | – | – |
| CC(C)C(=O)NCC1(O)CCN(c2nc(Oc3cccc(F)c3)cc(C(F)(F)F)n2)C1 (stereo not shown) [Example 34, N-({1-[4-(3-fluorophenoxy)-6-(trifluoromethyl)pyrimidin-2-yl]-3-hydroxypyrrolidin-3-yl}methyl)-2-methylpropanamide] | 6.50 | 4.72 | > 100 µM | – | – |
| O=C(NCC1(O)CCN(c2nc(Oc3cccc(F)c3)cc(C(F)(F)F)n2)C1)C1CNC1 (stereo not shown) [Example 35, N-({1-[4-(3-fluorophenoxy)-6-(trifluoromethyl)pyrimidin-2-yl]-3-hydroxypyrrolidin-3-yl}methyl)azetidine-3-carboxamide] | 8.25 | 6.56 | 33.1 µM | – | – |
| (3R or 3S)-3-[(cyclopropylamino)methyl]-1-[4-(3-fluorophenoxy)-6-(trifluoromethyl)pyrimidin-2-yl]pyrrolidin-3-ol [Example 32] | 8.47 | 6.63 | – | – | 4.36 |
